Experimental data taken from patent publication US10207985B2, “Compounds” (SYNGENTA PARTICIPATIONS AG, priority 2013, dated 2019).

- melting point: 111 to 112 °C
SMILES: Cc1ccsc1C1CC[C@H]1NC(=O)c1ccccc1C(F)(F)F (stereo partly shown) [Compound 116-4]
